The record followed here is patent US7910305B2, “Methods for screening for compounds that modulate insulin promoter activity” (The Burnham Institute for Medical Research, priority 2005, dated 2011).

Peptide text beside a SMILES is read from it. * marks the point of attachment. Cbz = O=C(OCc1ccccc1)*

One assay concerns myosin heavy chain gene. As to the kind of experiment: RT-PCR for myosin heavy chain gene in T6PN/E47MER cells. The class given is cell-based, human.
The test system of another assay is insulin mRNA. As to the kind of experiment: RT-PCR for endogenous insulin mRNA in T6PN/E47MER cells. Type of assay: cell-based, human. An excerpt:
(A) Insulin mRNA is barely detectable by non-quantitative RT-PCR in the absence of tamoxifen in two biological replicates of T6PN/E47^MER cells.
Cells were exposed to 5 micromolar compound and also had 0.5 micromolar tamoxifen. […] […] Both GFP and insulin mRNA levels are normalized for GAPDH mRNA to rule out nonspecific effects of the compounds on transcription.
(§1) To increase the level of insulin expression, TRM-6 cells expressing PDX-1 and NeuroD1 (T6PN cells) (Follenzi et al., Nature Genet. 25:217-222, 2000) were infected with an E47^MER retroviral vector and selected by FACS. E47^MER consists of the class I bHLH factor E47 which is a potent insulin transactivator fused to a mutated estrogen receptor that renders it functional only in the presence of tamoxifen. […] To determine whether the effects of E47 were limited to insulin expression or had more general effects on beta-cell differentiation, a panel of other beta-cell genes was examined. […] Thus, T6PN/E47^MER cells express a substantial number of important beta-cell genes, making them an appropriate target for the insulin promoter screens described herein.
Second Confirmatory Assay. Compounds that passed the primary confirmatory assay were passed on for further testing in a secondary confirmatory assay. This consisted of RT-PCR of GFP and endogenous insulin mRNA (FIG. 7). Both GFP and endogenous insulin RT-PCR assays are performed because of the possibility that a compound may affect the 1.4 kb insulin promoter transgene but not the endogenous insulin promoter, which may be under more complex control.

The test system of assay [1] is human insulin promoter-eGFP reporter in T6PN/E47MER cells. As to the kind of experiment: insulin promoter-eGFP reporter fluorescence in T6PN/E47MER cells. Type of assay: cell-based. Particulars: T6PN/E47MER cells infected with insulin promoter-eGFP lentiviral vector.
Excerpt: as §1
Assay Protocol. The following is a detailed assay protocol for the primary assay, i.e., first assay performed in a testing scheme to identify biologically active chemical entities in a screening mode: […]

The subject of assay [2] is human insulin gene (hINS) promoter-eGFP reporter in MIN6 mouse insulinoma cells. As to the kind of experiment: insulin promoter-destabilized eGFP reporter fluorescence in engineered MIN6 cells. The following applies: 384-well plates, three-fold titration series, imaged 48 hours after compound addition. Type of assay: cell-based. The source says:
We have developed a screen for small molecule compounds that modulate insulin promoter activity. Identifying these compounds and eventually their targets should provide insights into the signaling pathways that control insulin expression. The assay is based upon a mouse insulinoma, MIN6, that normally expresses insulin mRNA. This cell was engineered to stably contain two cassettes that use a fluorescent reporter protein to monitor insulin promoter activity and a housekeeping gene activity. The primary assay is to detect compounds that alter expression of an insulin promoter-destabilized eGFP reporter cassette in mouse insulinoma (MIN6) cells relative to that of a housekeeping gene, heat shock protein 68, the promoter of which is used in a second cassette to direct expression of destabilized dsRED2. […]
Engineering of MIN6 for Image-Based, High Throughput Screening. […] Viral supernatants harvested at 24 to 72 hours were 0.45 μm filtered and concentrated 100- to 200-fold by ultrafiltration using Centricon Plus-80 units (Millipore, Bedford, Mass., USA), yielding titers of approximately 10^9 transducing units (TU) per milliliter 5, determined by transduction of 293T cells with serial dilutions of the pRRL.SIN-18.cPPT.hPGK-EGFP.WPRE viral supernatant and FACS analysis to determine the percentage of EGFP-expressing cells. […]

Regarding `CC/C(=C(\c1ccccc1)c1ccc(OCCN(C)C)cc1)c1ccccc1` [tamoxifen], in the assay on myosin heavy chain gene, the “myosin heavy chain gene induction” value is listed as “not induced”. Moreover, the “insulin mRNA (RT-PCR), positive control” value in the assay with insulin mRNA (4 micromolar tamoxifen control) is “maximum induction of insulin mRNA”. Besides, the “insulin mRNA by non-quantitative RT-PCR” value with insulin mRNA (T6PN/E47MER cells with versus without tamoxifen, two biological replicates) is recorded as “strongly induced”. Further, in the assay on insulin mRNA (T6PN/E47MER cells, E47 activity induced by tamoxifen, two biological replicates), the “insulin mRNA by quantitative real-time RT-PCR” value is “dramatic upregulation of insulin mRNA”. The “induction of insulin gene expression” value in the assay on insulin mRNA (induction of E47 activity (E47MER functional only with tamoxifen) in T6PN cells) was 100 fold. Moreover, in assay [1], the eGFP induction result is “High levels of eGFP”.
Consider `C[C@@H]1C[C@@H]([C@H](O)CC2CC(=O)NC(=O)C2)C(=O)[C@@H](C)C1` [cyclohexamide], for which the eGFP fluorescence entry in assay [2] is “decrease in fluorescence intensity”.
With `CC(C)C[C@@H](C=O)NC(=O)[C@H](CC(C)C)NC(=O)[C@H](CC(C)C)NC(=O)OCc1ccccc1` [MG132] (Cbz-Leu-Leu-Leu-aldehyde), in assay [2], the eGFP fluorescence result is reported as “dose-dependent increase in eGFP fluorescence”.
